# Experimental data: patent US20180263975A1, “Methods Of Treating Motor And Movement Disorders And Side Effects Thereof Associated with Parkinson's Disease Treatments” (AMARANTUS BIOSCIENCE HOLDINGS, INC., priority 2015, published 2018)
# Entries after “also recorded” stand apart in the source; their conditions may differ.
# Key:
# 5-HT1a/5-HT1b receptor = conditions: cited from earlier work
# [1] = tested on: Parkinson's patients with L-DOPA induced dyskinesias; experiment: UPDRS-III rating of parkinsonian symptoms (levodopa efficacy) after a levodopa challenge dose; assay type: in vivo, human; conditions: 5 mg and 7.5 mg doses
# Source text: (§1) This example describes a multicenter, randomized, double-blind, placebo-controlled, dose finding study of oral eltoprazine in Parkinson's patients with L-DOPA induced dyskinesias, in a levodopa challenge-dose setting in Parkinson's Disease. A total of 22 patients participated in the study, out of which 18 patients fulfilled the protocol in terms of eligibility, interventions, and outcome assessment.
# (§2) During each of five visits, and after a two-hour fast, each patient received a challenge dosage (150%—up to a maximum of 250 mg) of levodopa. […] The patients were periodically recorded for 180 minutes after treatment, and the videos were evaluated in a blinded manner. […]
# Filming occurred 30 minutes prior to, and every 30 minutes up to 180 minutes after a challenge test of L-DOPA and study medication. […] Videotaped records of each sequence were assessed by separate individual qualified raters at both of the two clinical centers.
# Analyses were done on both the intention-to-treat (ITT) and per protocol (PP) population, if applicable. The change between test sessions of the highest observed Unified Parkinson's Disease Rating Scale-III (UPDRS) within each session will be calculated between the randomized placebo test session and each active test session and will be analyzed with Wilcoxon Signed Rank test on the ITT population.
# dopamine receptors = conditions: cited from earlier work
# [2] = Daytime plasma concentration of eltoprazine under dosing regimens
# 5-HT1d receptor = conditions: Sijbesma 1990; cited from earlier work
# [3] = tested on: Parkinson's patients with L-DOPA induced dyskinesias; experiment: Clinical Dyskinesia Rating Scale (CDRS) rating of L-DOPA induced dyskinesia after a levodopa challenge dose; assay type: in vivo, human
# Source text: as §1
# During the first visit, patients underwent screening for inclusion/exclusion criteria and safety assessments. Symptoms of parkinsonism, depression, and anxiety were assessed, and screening for significant L-DOPA dyskinesias were conducted using a challenge dose (150%) of L-DOPA. Subjects who were taking a prohibited medication were required to complete a washout period of appropriate length, as determined by the investigator. […]
# as §2
# (§3) Filming occurred 30 minutes prior to, and every 30 minutes up to 180 minutes after a challenge test of L-DOPA and study medication. […] Videotaped records of each sequence were assessed by separate individual qualified raters at both of the two clinical centers. […]
# [4] = tested on: Parkinson's patients with L-DOPA induced dyskinesias; experiment: Rush Dyskinesia Rating Scale AUC after a levodopa challenge dose; assay type: in vivo, human; conditions: 5 mg dose
# Source text: as §1, with “assessment. […]” for “assessment.”
# During each of five visits, and after a two-hour fast, each patient received a challenge dosage (150%—up to a maximum of 250 mg) of levodopa. […] The patients were periodically recorded for 180 minutes after treatment, and the videos were evaluated in a blinded manner.
# The term “Rush Dyskinesia Rating Scale” and “Rush DRS” refer to an observer-based rating scale based on fixed movements. The numerical parts of the Rush DRS are recorded separately from the descriptive parts, as described by Goetz et al., in Movement Disorders, Vol. 9, No. 4, 1994, 390-394.
# as §3
# [5] = tested on: Parkinson's patients with L-DOPA induced dyskinesias; experiment: Safety and tolerability in the dose finding study; assay type: in vivo, human; conditions: single oral doses 2.5, 5, 7.5 mg in PD patients
# Source text: This study also assessed the safety and tolerability of eltoprazine in adults with Parkinson's Disease using the following measures: a) population mean values for the change in dyskinesia ratings between the placebo and screening baseline values and any of the eltoprazine dosages used, calculated as the peak-effect on CDRS of any study medication; b) population mean values for the change in dyskinesia ratings between the placebo and screening baseline values and any of the eltoprazine dosages used, calculated as the AuC on Rush DRS of any study medication; c) any changes in the UPDRS-III total score; d) any change in the diary data set, between the baseline and placebo and any of the three study medication tests; e) any deterioration of the HADS scores after study medication compared with placebo; f) any development of depression over the course of the study period, determined by the Montgomery Asberg Depression Rating Scale (MADRS) and clinical judgment; g) comparison between the effects on Rush Dyskinesia Rating Scale (DRS) and Clinical Dyskinesia Rating Scale (CDRS) Area under the Curve (AuC) and peak of dose effects for the three study medication dosages.
# After screening, each patient participated in the study for approximately 6-10 weeks. The duration of the study was about 30 weeks. […]
compound,measurement,setting,value
"c1cc2c(c(N3CCNCC3)c1)OCCO2 [eltoprazine, 1-(2,3-dihydro-1,4-benzodioxin-5-yl) piperazine]","affinity for 5-HT1a versus 5-HT1b receptors, mixed agonist",5-HT1a/5-HT1b receptor; Schipper 1990,roughly equipotent affinity
same,receptor selectivity of binding profile,"5-HT1a/5-HT1b receptor; with respect to all receptors other than 5-HT1, Sijbesma 1990",selective 5-HT1 ligand
same,effect on L-DOPA efficacy measured by the UPDRS score (UPDRS-III),[1],did not affect L-DOPA efficacy; also recorded: no significant change
same,affinity for dopamine receptors,dopamine receptors,no relevant affinity
same,daytime plasma concentration profile (FIG. 4),"[2]; 5 mg and 7.5 mg b.d. at 4 hour intervals (2.5, 5, 7.5, 10 mg compared)",optimizes daytime plasma concentration from 10 AM to 8 PM
same,daytime plasma concentration profile (FIG. 3),"[2]; 7.5 mg twice daily at 4 or 6 hourly intervals (4, 6, 8, 12 h compared)",optimizes daytime plasma concentration from 10 AM to 8 PM
same,plasma concentration of drug,[2]; dose of 5 mg,approximately 10 ng/ml
same,plasma concentration of drug,[2]; dose of 7.5 mg,approximately 17 ng/ml
same,plasma concentration profile (FIG. 5),"[2]; three times daily 2.5, 5, 7.5 mg at 4 hour intervals",achieve maximal plasma concentrations in the late afternoon/evening period into the night time
same,affinity for the 5-HT1d receptor compared with serotonin,5-HT1d receptor,lower affinity
same,"reduction of LID measured by the CDRS scale, compared to placebo","[3]; 5 mg single oral dose with 150% L-DOPA challenge, p=0.0007",statistically significantly reduced LID
same,"reduction of LID measured by the CDRS scale, compared to placebo","[3]; 7.5 mg single oral dose with 150% L-DOPA challenge, p=0.0467",statistically significantly reduced LID
same,reduction of LID measured by the Rush Scale AUC,[4],reduced LID in PD patients statistically significantly
same,serious adverse events,[5],no serious adverse events
same,tolerability,[5],well tolerated
